In ChEMBL document CHEMBL1201862, “PubChem BioAssay data set” (2004):
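Protocol summary: plate cells (96-well), add compound at 5 concentrations, incubate 48 h, interpolate endpoints linearly. GI50 is the concentration that inhibits growth by half.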 Activity calls are given as the source filed them. No stated cut-off is given here; in the data, active = GI50 up to about 1.1 µM and inactive = higher.

How the values were obtained:
Experiment in all cases: NCI tumour cell line growth inhibition, 48 h
NCI-H226 = system: NCI-H226
U-251 = system: U-251
SK-MEL-5 = system: SK-MEL-5
UACC-257 = system: UACC-257
MDA-MB-435 = system: MDA-MB-435
HCC 2998 = system: HCC 2998
MDA-N = system: MDA-N
A498 = system: A498
HOP-92 = system: HOP-92
SR = system: SR
786-0 = system: 786-0
BT-549 = system: BT-549
CCRF-CEM = system: CCRF-CEM
SN12C = system: SN12C
MCF7 = system: MCF7
SF-268 = system: SF-268
TK-10 = system: TK-10
HCT-116 = system: HCT-116
K562 = system: K562
M14 = system: M14

Row | Structure (SMILES) | GI50 (NCI-H226) | GI50 (U-251) | GI50 (SK-MEL-5) | GI50 (UACC-257) | GI50 (MDA-MB-435) | GI50 (HCC 2998) | GI50 (MDA-N) | GI50 (A498) | GI50 (HOP-92) | GI50 (SR) | GI50 (786-0) | GI50 (BT-549) | GI50 (CCRF-CEM) | GI50 (SN12C) | GI50 (MCF7) | GI50 (SF-268) | GI50 (TK-10) | GI50 (HCT-116) | GI50 (K562) | GI50 (M14)
1 | C=CCN1CC2CN=NC2(C#N)C1 (configuration not stated) | > 100 µM (inactive) | > 100 µM (inactive) | > 100 µM (inactive) | > 100 µM (inactive) | > 100 µM (inactive) | > 100 µM (inactive) | > 100 µM (inactive) | > 100 µM (inactive) | 2.33 µM (inactive) | > 100 µM (inactive) | > 100 µM (inactive) | > 100 µM (inactive) | > 100 µM (inactive) | > 100 µM (inactive) | > 100 µM (inactive) | > 100 µM (inactive) | > 100 µM (inactive) | > 100 µM (inactive) | > 100 µM (inactive) | –
2 | COC(=O)C1=C(C(=O)OC)N(c2ccc(OC)cc2[N+](=O)[O-])C(c2ccc(C)cc2)=CC1c1ccc(OC)cc1OC (configuration not stated) | 18.3 µM (inactive) | 6.37 µM (inactive) | 26.2 µM (inactive) | 23.1 µM (inactive) | 5.13 µM (inactive) | 8.28 µM (inactive) | 4.62 µM (inactive) | 16 µM (inactive) | 47.2 µM (inactive) | 2.28 µM (inactive) | 11.9 µM (inactive) | 11.3 µM (inactive) | 3.86 µM (inactive) | 13.6 µM (inactive) | 4.05 µM (inactive) | 32.9 µM (inactive) | 18.5 µM (inactive) | 10.7 µM (inactive) | 3.16 µM (inactive) | 17.2 µM (inactive)
3 | CC(=O)Nc1ccc2c3c(cc(O)c2c1)N(C(=O)CCCCCCC(=O)N1CC(CCl)c2c1cc(O)c1cc(NC(C)=O)ccc21)CC3CCl (configuration not stated) | < 0.01 µM (active) | < 0.01 µM (active) | < 0.01 µM (active) | 0.0104 µM (active) | 0.0127 µM (active) | < 0.01 µM (active) | < 0.01 µM (active) | < 0.01 µM (active) | < 0.0117 µM (active) | < 0.01 µM (active) | < 0.01 µM (active) | < 0.01 µM (active) | < 0.01 µM (active) | < 0.01 µM (active) | < 0.01 µM (active) | < 0.01 µM (active) | 0.0251 µM (active) | < 0.01 µM (active) | < 0.0125 µM (active) | < 0.01 µM (active)
4 | O=C(Nc1ccc2nc(-c3ccccc3)cn2c1)Oc1ccccc1 | > 100 µM (inactive) | 52.7 µM (inactive) | 59.7 µM (inactive) | 36.1 µM (inactive) | 13.9 µM (inactive) | 25.2 µM (inactive) | 14 µM (inactive) | 71.3 µM (inactive) | > 100 µM (inactive) | 19 µM (inactive) | 91 µM (inactive) | > 100 µM (inactive) | 39.7 µM (inactive) | 66.8 µM (inactive) | 35.4 µM (inactive) | > 100 µM (inactive) | 53.7 µM (inactive) | 45.9 µM (inactive) | 34.6 µM (inactive) | 39.2 µM (inactive)
5 | CCOC(=O)c1c(C)[nH]c2c1c(CN(C)C)c(O)c1nc(C)c(C)nc12 | 22.2 µM (inactive) | 24.3 µM (inactive) | 15 µM (inactive) | 23.5 µM (inactive) | 25.6 µM (inactive) | 21.4 µM (inactive) | 19.2 µM (inactive) | 15.2 µM (inactive) | 31.8 µM (inactive) | 16.5 µM (inactive) | 16.1 µM (inactive) | 26.2 µM (inactive) | 10.8 µM (inactive) | 12.6 µM (inactive) | 17.9 µM (inactive) | 27.3 µM (inactive) | 24.2 µM (inactive) | 17.2 µM (inactive) | 21.3 µM (inactive) | 36.1 µM (inactive)
6 | CCSc1nnc(Sc2c3ccccc3nc3ccccc23)s1 | 33.7 µM (inactive) | 23.3 µM (inactive) | 15.6 µM (inactive) | 7.98 µM (inactive) | 9.84 µM (inactive) | 11.8 µM (inactive) | 6.68 µM (inactive) | 23.8 µM (inactive) | 11.7 µM (inactive) | 3.19 µM (inactive) | 2.84 µM (inactive) | 17.6 µM (inactive) | 2.64 µM (inactive) | 15.2 µM (inactive) | 3.92 µM (inactive) | 19.3 µM (inactive) | 6.18 µM (inactive) | 7.41 µM (inactive) | 3.8 µM (inactive) | 11.5 µM (inactive)
7 | C=C1CC2(CC(c3ccccc3Cl)OC(c3ccccc3Cl)C2)OC1=O (configuration not stated) | 8.69 µM (inactive) | 8.07 µM (inactive) | 4.3 µM (inactive) | 2.08 µM (inactive) | 1.8 µM (inactive) | 3.52 µM (inactive) | 1.87 µM (inactive) | 9.73 µM (inactive) | 1.87 µM (inactive) | 2.52 µM (inactive) | 2 µM (inactive) | 2.02 µM (inactive) | 1.96 µM (inactive) | 2.37 µM (inactive) | 2.11 µM (inactive) | 2.27 µM (inactive) | 4.33 µM (inactive) | 1.76 µM (inactive) | 2.26 µM (inactive) | 1.71 µM (inactive)
8 | c1cc(-c2cnc(-c3ccc4c(c3)CCCO4)o2)ccn1 | 15.3 µM (inactive) | 16.7 µM (inactive) | 12.6 µM (inactive) | 15.1 µM (inactive) | 15.1 µM (inactive) | – | 14.7 µM (inactive) | 12.3 µM (inactive) | 22.9 µM (inactive) | 0.524 µM (active) | 19.5 µM (inactive) | 15.2 µM (inactive) | 5.98 µM (inactive) | 18.5 µM (inactive) | 14.7 µM (inactive) | 15.6 µM (inactive) | 12.7 µM (inactive) | 16.7 µM (inactive) | 5.05 µM (inactive) | 18.6 µM (inactive)
9 | COc1cccc2c1C(=O)c1ccc3cc(CO)cc(O)c3c1C2=O | 0.908 µM (active) | 1.45 µM (inactive) | 0.139 µM (active) | 0.0879 µM (active) | 0.201 µM (active) | – | 0.19 µM (active) | 3.52 µM (inactive) | 0.573 µM (active) | 0.267 µM (active) | 0.619 µM (active) | 1.58 µM (inactive) | 0.204 µM (active) | 0.748 µM (active) | 0.41 µM (active) | 0.815 µM (active) | 3.01 µM (inactive) | 0.252 µM (active) | 1.41 µM (inactive) | 0.245 µM (active)
10 | Nc1nc(N)c2c(-c3ccccc3)ccnc2n1 | 40.4 µM (inactive) | > 100 µM (inactive) | > 100 µM (inactive) | > 100 µM (inactive) | > 100 µM (inactive) | > 100 µM (inactive) | > 100 µM (inactive) | > 100 µM (inactive) | 81.7 µM (inactive) | > 100 µM (inactive) | 67.1 µM (inactive) | > 100 µM (inactive) | > 100 µM (inactive) | > 100 µM (inactive) | > 100 µM (inactive) | > 100 µM (inactive) | > 100 µM (inactive) | > 100 µM (inactive) | > 100 µM (inactive) | –
11 | CC(=O)c1ccc(Nc2nc3ccccc3c3occc23)cc1 | 17 µM (inactive) | 18.8 µM (inactive) | 12.1 µM (inactive) | 13.2 µM (inactive) | 3.08 µM (inactive) | 6.89 µM (inactive) | 6.98 µM (inactive) | 2.99 µM (inactive) | 12.8 µM (inactive) | 2.92 µM (inactive) | 5.6 µM (inactive) | 19.8 µM (inactive) | 10.5 µM (inactive) | 31.9 µM (inactive) | 8.22 µM (inactive) | 14.1 µM (inactive) | 7.1 µM (inactive) | 11.4 µM (inactive) | – | 14.1 µM (inactive)
12 | CC1OC(OC2C(OC(=O)[C@]34CCC(C)(C)C[C@H]3C3=CC[C@@H]5[C@@]6(C)CC[C@H](OC7OC(C(=O)O)C(O)C(O)C7O)C(C)(C)[C@@H]6CC[C@@]5(C)[C@]3(C)C[C@H]4O)OCC(O)C2O)C(O)C(OC2OCC(O)(CO)C2O)C1OC1OCC(O)C(O)C1O (some centres not stated) | 10.9 µM (inactive) | 9.64 µM (inactive) | 14.8 µM (inactive) | 11.1 µM (inactive) | 6.59 µM (inactive) | 1.81 µM (inactive) | 4.31 µM (inactive) | 1.83 µM (inactive) | 12.1 µM (inactive) | 3.94 µM (inactive) | 12.1 µM (inactive) | 5.42 µM (inactive) | 17 µM (inactive) | 3.37 µM (inactive) | 6.17 µM (inactive) | 17.9 µM (inactive) | – | 7.19 µM (inactive) | 10.3 µM (inactive) | 10.8 µM (inactive)
13 | CCCN1CC=C(c2cc(C(=O)OCC)[nH]c2-c2cc(C)no2)C1=O | 73.5 µM (inactive) | > 100 µM (inactive) | > 100 µM (inactive) | > 100 µM (inactive) | > 100 µM (inactive) | > 100 µM (inactive) | > 100 µM (inactive) | > 100 µM (inactive) | > 100 µM (inactive) | 54.7 µM (inactive) | > 100 µM (inactive) | > 100 µM (inactive) | 89.3 µM (inactive) | > 100 µM (inactive) | > 100 µM (inactive) | > 100 µM (inactive) | – | > 100 µM (inactive) | > 100 µM (inactive) | > 100 µM (inactive)
14 | COc1cc(C2SCC(=O)N2c2ccc(-n3c(-c4ccccc4)nc4ccccc4c3=O)cc2)ccc1O (configuration not stated) | 5.01 µM (inactive) | 84.9 µM (inactive) | 49.3 µM (inactive) | > 100 µM (inactive) | > 100 µM (inactive) | 58.3 µM (inactive) | > 100 µM (inactive) | > 100 µM (inactive) | 13.3 µM (inactive) | 26 µM (inactive) | > 100 µM (inactive) | > 100 µM (inactive) | 27.2 µM (inactive) | – | 70 µM (inactive) | 32.4 µM (inactive) | > 100 µM (inactive) | 50.1 µM (inactive) | > 100 µM (inactive) | > 100 µM (inactive)
